Measurements reported in patent US6605641B2, “20-HETE antagonists and agonists” (MCW Research Foundation, priority 1998, dated 2003).
Entries after “also recorded” stand apart in the source; their conditions may differ.

Experiments:
[1] = system: vasoconstrictor response to 20-HETE in isolated renal interlobular arteries; experiment: 20-HETE antagonist activity: dose response curves to 20-HETE before and after addition of analog; format: cell-based, rat; settings: for effect of analog on the vasoconstrictor response to 20-HETE (antagonist activity): analog 0.5 or 1 μM in bath, 20-HETE 10^−8 to 10^−6 M; for reduction of the vasoconstrictor response to 20-HETE: analog 1 μM in bath, for arachidonic acid response to 1 μM 20-HETE
Procedure: We also disclose below a test for 20-HETE antagonist activity. In this analysis, test compounds were analyzed by a cumulative dose response curve to 20-HETE generated before and after the addition of the test compound. […] We envision suitable antagonists as similarly blocking the vasoconstrictor response.
(§1) Isolated vessel studies. Interlobular arterioles (70-120 μm inner diameter) were microdissected from the kidneys of rats. The vessels were mounted on glass micropipettes in a perfusion chamber containing physiological saline solution equilibrated with a 95% O2-5% CO2 gas mixture and maintained at 37° C. The vessel were secured to the pipettes and side branches were tied off with 10-0 silk suture. The inflow pipette was connected to a pressurized reservoir to control of intraluminal perfusion pressure, which was monitored using a transducer (Cobe, Lakewood, Colo.). The vessels were stretched to in vivo length measured before microdissection. The outflow cannula was clamped off and intraluminal pressure was maintained at 90 mm Hg during the experiment. Vascular diameters were measured with a video system composed of a stereo microscope (Carl Zeiss, Inc., Germany), a CCTV television camera (KP-130AU, Hitachi, Japan), a videocassette recorder (AG-7300, Panasonic, Japan), a television monitor (CVM-1271, Sony, Japan), and a video measuring system (VIA-100, Boeckeler Instrument Co., Tucson, Ariz.).
(§2) The composition of the perfusate and the bath was (in mM): 119 NaCl, 4.7 KCl, 1.17 MgSO4, 1.6 CaCl2, 12 NaHCO3, 1.18 NaH2PO4, 0.03 EDTA and 10 glucose, pH 7.4. Indomethacin (5 μM), baicalein (0.5 μM) and 17-ODYA (1 μM) were added to the bath to block the endogenous formation and metabolism of eicosanoids via the cyclooxygenase, lipoxygenase and cytochrome P450 pathways. After the equilibration period, cumulative dose response curves were generated for each of the 20-HETE analogs.
20-HETE antagonist activity. […] In these experiments, cumulative dose response curves to 20-HETE (10^−8 to 10^−6 M) were generated before and after addition of 5(S)-HETE (0.5 μM), 8(S)-HETE (1 μM), 12(S)-HETE (0.5 μM), 15(S)-HETE (1 μM), 19(S)-HETE (1 μM), the C19-analog (1 μM), arachidonic acid (1 μM), 20-carboxy-arachidonic acid (1 μM), reverse 20-HETE (1 μM), saturated 20-HETE (1 μM), and the saturated C19-analog (1 μM) to the bath. Vascular diameters were recorded 2 to 3 minutes after the addition of each dose of 20-HETE to the bath.

[2] = system: isolated, pressured rat renal interlobular arteries; experiment: Isolated vessel studies: vasoconstrictor response (vascular diameter) to cumulative doses of 20-HETE analogs; format: cell-based; settings: 10^−8 to 10^−6 M (up to 1 μM), indomethacin, baicalein, 17-ODYA present, diameter 2 to 3 minutes after addition
Procedure: General. Experiments were performed on 10 to 12-week old male Sprague-Dawley rats purchased from Harlan Sprague-Dawley Laboratories (Indianapolis, Ind.). The rats were housed in the animal care facility at the Medical College of Wisconsin, which is approved by the American Association for the Accreditation of Laboratory Animal Care. The animals had free access to food and water. All protocols involving animals received approval by the Animal Care Committee of the Medical College of Wisconsin.
as §1, §2
Effect of the position of the hydroxyl group on the vasoconstrictor response to 20-HETE. These experiments examined the effects of increasing concentrations of 5(S)-, 8(S)-, 12(S)-, 15(S)-, and 19(S)-HETE on the diameter of isolated, pressured rat renal interlobular arteries. All of these analogs have the same number of carbons, double bonds and molecular weight as 20-HETE (FIG. 1). The major difference between these compounds and 20-HETE is the position of the OH group along the carbon chain. Additional experiments were performed with arachidonic acid and 20-carboxyarachidonic acid, which are structurally similar to 20-HETE but lack a hydroxyl group on the 20th carbon and 20-hydroxyeicosa-6, 15-dienoic acid (reverse 20-HETE) which has the carboxy- and hydroxy-moieties on the 1st and 20th carbons reversed. Cumulative dose response curves were generated for each compound (10^−8 to 10^−6 M) in the presence of indomethacin, baicalein, and 17-ODYA. Vascular diameters were recorded 2 to 3 minutes after the addition of the compounds to the bath.
Effect of the double bonds and carbon chain length to the vasoconstrictor response to 20-HETE. We next examined the importance of the double bonds and the length of the carbon chain to the vasoconstrictor response to 20-HETE. In these studies, the double bonds in the 20-HETE molecule were removed creating partial and saturated 20-HETE derivatives (20-hydroxyeicosa-6(Z),15(Z) dienoic acid; 20-hydroxyeicosanoic acid, FIG. 1). 20-HETE was also shortened by one carbon, creating a 19-carbon analog (19-hydroxynonadeca-5(Z),8(Z),11(Z),14(Z)-tetraenoic acid, FIG. 1) and double bonds were removed, creating a saturated 19-carbon analog (19 hydroxynonadecanoic acid, FIG. 1). […]

Question: `CCCCC/C=C\C/C=C\C/C=C\C=C\[C@@H](O)CCCC(=O)O` [5(S)-HETE] was tested. Which “effect of analog on the vasoconstrictor response to 20-HETE (antagonist activity)” value (“effect of analog” for short) ([1]; listed as 5-HETE) did it give?
Answer: Its value is “completely blocked; also recorded: very effective antagonists; also recorded: blocked the vasoconstrictor response to 20-HETE”.

Question: And the “effect on the diameter of renal interlobular arteries (vasoconstrictor/agonist activity)” value (shortened to “effect … (vasoconstrictor/agonist activity)”) [2]?
Answer: Its value is “no significant effect”.

Question: And the “effect … (vasoconstrictor/agonist activity)” value ([2]; listed as 5-HETE)?
Answer: The value was “no effect”.

Question: `CCCCC/C=C\C/C=C\C=C\[C@@H](O)C/C=C\CCCC(=O)O` [8(S)-HETE] was tested. Which “effect of analog” value [1] did it give?
Answer: The value was “no significant effect”.

Question: What about the “effect of analog” value ([1]; listed as 8-HETE) of the same compound?
Answer: Its value is “did not antagonize”.

Question: What about the “effect … (vasoconstrictor/agonist activity)” value [2] of the same compound?
Answer: The value was “no significant effect”.

Question: And the “effect … (vasoconstrictor/agonist activity)” value ([2]; listed as 8-HETE)?
Answer: Its value is “no effect”.

Question: What does the source list for `CCCCC/C=C\C[C@H](O)/C=C/C=C\C/C=C\CCCC(=O)O` [12(S)-HETE]?
Answer: effect of analog on the vasoconstrictor response to 20-HETE (antagonist activity) [1]: no significant effect; effect of analog on the vasoconstrictor response to 20-HETE (antagonist activity) ([1]; listed as 12-HETE): did not antagonize; effect on the diameter of renal interlobular arteries (vasoconstrictor/agonist activity) [2]: no significant effect; effect on the diameter of renal interlobular arteries (vasoconstrictor/agonist activity) ([2]; listed as 12-HETE): no effect

Question: Which results are given for `CCCCC[C@H](O)/C=C/C=C\C/C=C\C/C=C\CCCC(=O)O` [15(S)-HETE]?
Answer: effect of analog on the vasoconstrictor response to 20-HETE (antagonist activity) ([1]; listed as 15-HETE): completely blocked; also recorded: very effective antagonists; also recorded: blocked the vasoconstrictor response to 20-HETE; effect on the diameter of renal interlobular arteries (vasoconstrictor/agonist activity) [2]: no significant effect; effect on the diameter of renal interlobular arteries (vasoconstrictor/agonist activity) ([2]; listed as 15-HETE): no effect

Question: `C[C@H](O)CCC/C=C\C/C=C\C/C=C\C/C=C\CCCC(=O)O` [19(S)-HETE] was tested. Which “effect of analog” value ([1]; listed as 19-HETE) did it give?
Answer: The value was “completely eliminated the response to 20-HETE; also recorded: very effective antagonists”.

Question: What about the “effect … (vasoconstrictor/agonist activity)” value [2] of the same compound?
Answer: The value was “no significant effect”.

Question: What about the “effect … (vasoconstrictor/agonist activity)” value ([2]; listed as 19-HETE) of the same compound?
Answer: The value was “no effect”.

Question: For `O=C(O)CCCC/C=C\CCCCCCC/C=C\CCCCO` [20-Hydroxyeicosa-6(Z),15(Z)-dienoic Acid], which “effect of analog” value [1] is on record?
Answer: Its value is “completely blocked”.

Question: And the “effect of analog” value ([1]; listed as partially saturated reverse 20-HETE)?
Answer: The value was “completely eliminated the response to 20-HETE”.

Question: And the “effect … (vasoconstrictor/agonist activity)” value [2]?
Answer: The value was “eliminated agonist activity”.

Question: Which results are given for `O=C(O)CCC/C=C\C/C=C\C/C=C\C/C=C\CCCCCCO` [21-HETE, 21-Hydroxyheneicosa-5(Z),8(Z),11(Z),14(Z)-tetraenoic Acid]?
Answer: effect on the diameter of renal interlobular arteries (vasoconstrictor/agonist activity) [2]: just as potent constrictors as 20-HETE; effect on the diameter of renal interlobular arteries (vasoconstrictor/agonist activity) ([2]; listed as 21-carbon derivative): just as potent vasoconstrictors as 20-HETE

Question: What does the source list for `O=C(O)CCC/C=C\C/C=C\C/C=C\C/C=C\CCCCO` [C19-analog, 19-Hydroxynonadeca-5(Z),8(Z),11(Z),14(Z)-tetraenoic Acid]?
Answer: effect of analog on the vasoconstrictor response to 20-HETE (antagonist activity) [1]: completely eliminated the response to 20-HETE; effect of analog on the vasoconstrictor response to 20-HETE (antagonist activity) ([1]; listed as C19 analog): very effective antagonists; effect on the diameter of renal interlobular arteries (vasoconstrictor/agonist activity) ([2]; listed as 19-carbon analog of 20-HETE): no significant effect; effect on the diameter of renal interlobular arteries (vasoconstrictor/agonist activity) ([2]; listed as 19-carbon derivative of 20-HETE): no effect

Question: Which “reduction of the vasoconstrictor response to 20-HETE” value [1] does the source give for `CCCCC/C=C\C/C=C\C/C=C\C/C=C\CCCC(=O)O` [arachidonic acid] here?
Answer: The value was 50%.

Question: What about the “effect of analog” value [1] of the same compound?
Answer: The value was “very effective antagonists”.

Question: What about the “effect … (vasoconstrictor/agonist activity)” value [2] of the same compound?
Answer: The value was “no significant effect; also recorded: does not constrict”.

Question: What does the source list for `CC(C)(O)CCCCC=CCC=CCC=CCC=CCCCC(=O)O` [dimethyl 20-HETE, 20,20-Dimethyl-20-HETE]?
Answer: effect on the diameter of renal interlobular arteries (vasoconstrictor/agonist activity) [2]: just as potent constrictors as 20-HETE; effect on the diameter of renal interlobular arteries (vasoconstrictor/agonist activity) ([2]; listed as dimethyl derivative): just as potent vasoconstrictors as 20-HETE

Question: Which results are given for `O=C(O)CCC/C=C\CCCCCCC/C=C\CCCCCO` [partially saturated 20-HETE derivative, 20-Hydroxyeicosa-5(Z),14(Z)-dienoic Acid]?
Answer: effect on the diameter of renal interlobular arteries (vasoconstrictor/agonist activity) [2]: potent a constrictor as 20-HETE; effect on the diameter of renal interlobular arteries (vasoconstrictor/agonist activity) ([2]; listed as partially saturated analog): retained vasoconstrictor activity

Question: `O=C(O)CCCCCCCCCCCCCCCCCCO` [saturated 19-carbon analog, 19-Hydroxynonadecanoic Acid] was tested. Which “reduction of the vasoconstrictor response to 20-HETE” value [1] did it give?
Answer: Its value is “about 50%”.

Question: And the “effect of analog” value [1]?
Answer: Its value is “not as effective as the parent compounds”.

Question: For “Eicosatetraen-1,20-dioic Acid [20-carboxy-arachidonic acid]”, which “effect of analog” value [1] is on record?
Answer: Its value is “no significant antagonistic properties”.

Question: And the “effect … (vasoconstrictor/agonist activity)” value [2]?
Answer: Its value is “no significant effect”.
